Source: publication PMC7028757 (2020)

Columns and labels:
[1] = test system: Oxytricha Nova G-quadruplex d(GGGGTTTTGGGG) (DNA, G4) GGGGTTTTGGGG; experiment: UV melting, 260 nm; details: 100 mM NaCl; 10 mM sodium cacodylate, 0.5 mM EDTA, pH 7.0; 5 μM quadruplex, ligand 1:1
[2] = test system: Oxytricha Nova G-quadruplex d(GGGGTTTTGGGG) (DNA, G4) GGGGTTTTGGGG; experiment: FID; details: 100 mM NaCl; 10 mM sodium cacodylate, 0.5 mM EDTA, pH 7.0, 20°C; thiazole orange 0.50 μM displaced
[3] = test system: d(AGGGGTTTTCCCCT) hairpin duplex (DNA, hairpin) AGGGGTTTTCCCCT; experiment: FID; details: 100 mM NaCl; 10 mM sodium cacodylate, 0.5 mM EDTA, pH 7.0, 20°C; thiazole orange 0.50 μM displaced
[4] = test system: Oxytricha Nova G-quadruplex d(GGGGTTTTGGGG) (DNA, G4) GGGGTTTTGGGG; experiment: fluorescence titration; details: 100 mM NaCl; 10 mM sodium cacodylate, 0.5 mM EDTA, pH 7.0, 20°C

SMILES | ΔTm [1] [°C] | DC50 [2] [µM] | DC50 [3] [µM] | binding [4]
NC[C@@H]1O[C@H](O[C@H]2[C@@H](O)[C@H](O[C@@H]3[C@@H](O)[C@H](N)C[C@H](N)[C@H]3O[C@H]3O[C@H](CN)[C@@H](O)[C@H](O)[C@H]3N)O[C@@H]2CSCCNC(=O)CCCc2ccc3ccc4cccc5ccc2c3c45)[C@H](N)[C@@H](O)[C@@H]1O | 1.9 | 4.73 | 2.61 | –
NC[C@@H]1O[C@H](O[C@H]2[C@@H](O)[C@H](O[C@@H]3[C@@H](O)[C@H](N)C[C@H](N)[C@H]3O[C@H]3O[C@H](CN)[C@@H](O)[C@H](O)[C@H]3N)O[C@@H]2CO)[C@H](N)[C@@H](O)[C@@H]1O | 0.0 | 76.02 | 53.44 | –
CN1C(=Cc2cc[n+](C)c3ccccc23)Sc2ccccc21 | – | – | – | yes
NC[C@@H]1O[C@H](O[C@H]2[C@@H](O)[C@H](O[C@@H]3[C@@H](O)[C@H](N)C[C@H](N)[C@H]3O[C@H]3O[C@H](CN)[C@@H](O)[C@H](O)[C@H]3N)O[C@@H]2CSCCNC(=O)NCCCNC(=O)c2ccc3c(c2)C(=O)c2ccccc2C3=O)[C@H](N)[C@@H](O)[C@@H]1O | 0.5 | 0.30 | 0.75 | –
CN(C)CCN1C(=O)c2ccc3c4c(ccc(c24)C1=O)C(=O)N(CCCNC(=O)NCCSC[C@H]1O[C@@H](O[C@@H]2[C@@H](O)[C@H](N)C[C@H](N)[C@H]2O[C@H]2O[C@H](CN)[C@@H](O)[C@H](O)[C@H]2N)[C@H](O)[C@@H]1O[C@H]1O[C@@H](CN)[C@@H](O)[C@H](O)[C@H]1N)C3=O | 0.6 | 7.89 | 0.83 | –
